Measurements: US20200354796A1, “Use of DNA Recombination Deficiency Score (RDS) in Cancer Treatment” (SHUWEN BIOTECH CO., LTD., priority 2017, published 2020)
Counter-ions that a name gives are not always drawn.

Assays:
[1] = tested on: TNBC patients; conditions: CALGB 40603 study, combined carboplatin, cited from earlier work
[2] = tested on: A549; test: In vitro drug sensitivity test of cells, MTS method; format: cell-based; conditions: A549 human non-small cell lung adenocarcinoma cells, culture time 72 h-216 h
Excerpt: (§1) 1640 medium (Gibco), DMEM medium (Hyclone), MEM medium (Gibco), […] medium (Gibco), DMEM/F12 medium (Gibco), L-15 medium (Hyclone), IMDM culture Base (Hyclone), non-essential amino acid (Gibco), sodium pyruvate (Gibco), insulin-transferrin-selenium additive TS-G, Shanghai Yuanpei Bio-tech), fetal bovine serum ([…]), trypsin digestion fluid (Jiangsu KGI), Cell Titer 96® AQueousOne Solution Cell Proliferation Assay (Promega), 96-well cell culture plate (Corning, Cat. No. 3599), Cisplatin (sigma, Cat. No. P4394), Olaparib (Selleck, Cat. No. S1060), Topotecan hydrochloride hydrate (Sigma, article number T2705), Paclitaxel (Dalian Meilun, article number MB1178). [table] […] Then the inventors adjusted the cell suspension concentration to 1×10^4/mL, added the cells to a 96 well plate as 100 ul per well, that is, 1000-2000 cells per well. Then the cells were incubated at 5% CO2, 37° C. overnight. The next day, after the cells at the bottom of the 96-well plate adhered, various drugs with different concentration gradients were added: […] After putting the 96-well plate into a CO2 incubator for 72 hours, the cell morphology and density in each were observed. For slow-growing cells, supplementation treatment was needed. For different cells, the culture time was between 72 h-216 h, and most of the cell culture time was between 144 h-168 h. […] Measure the absorbance (OD) of each well at 492 nm. Cell Viabilities was calculated by the formula: [formula]

[3] = tested on: CAMA-1; test: as above; format: cell-based; conditions: CAMA-1 human breast cancer cells, culture time 72 h-216 h
Excerpt: as §1

[4] = tested on: Cal-120; test: as above; format: cell-based; conditions: Cal-120 human breast cancer cells, culture time 72 h-216 h
Excerpt: as §1

[5] = tested on: Capan-1; test: as above; format: cell-based; conditions: Capan-1 human pancreatic cancer cells, culture time 72 h-216 h
Excerpt: as §1

[6] = tested on: H1299; test: as above; format: cell-based; conditions: culture time 72 h-216 h
Excerpt: as §1

[7] = tested on: H1650; test: as above; format: cell-based; conditions: culture time 72 h-216 h
Excerpt: as §1

[8] = tested on: H1975; test: as above; format: cell-based; conditions: culture time 72 h-216 h
Excerpt: as §1

[9] = tested on: H2228; test: as above; format: cell-based; conditions: culture time 72 h-216 h
Excerpt: as §1

[10] = tested on: H2444; test: as above; format: cell-based; conditions: culture time 72 h-216 h
Excerpt: as §1

[11] = tested on: H3122; test: as above; format: cell-based; conditions: culture time 72 h-216 h
Excerpt: as §1

[12] = tested on: H520; test: as above; format: cell-based; conditions: culture time 72 h-216 h
Excerpt: as §1

[13] = tested on: HCC1937; test: as above; format: cell-based; conditions: HCC1937 human breast cancer cells, culture time 72 h-216 h
Excerpt: as §1

[14] = tested on: HCC4006; test: as above; format: cell-based; conditions: HCC4006 human lung adenocarcinoma cells, culture time 72 h-216 h
Excerpt: as §1

[15] = tested on: HCC827; test: as above; format: cell-based; conditions: HCC827 human lung adenocarcinoma cells, culture time 72 h-216 h
Excerpt: as §1

[16] = tested on: HCC95; test: as above; format: cell-based; conditions: HCC95 human lung cancer cells, culture time 72 h-216 h
Excerpt: as §1

[17] = tested on: HEK-293; test: as above; format: cell-based; conditions: culture time 72 h-216 h
Excerpt: as §1

[18] = tested on: HT29; test: as above; format: cell-based; conditions: culture time 72 h-216 h
Excerpt: as §1

[19] = tested on: KYSE450; test: as above; format: cell-based; conditions: culture time 72 h-216 h
Excerpt: as §1

[20] = tested on: MCF-7; test: as above; format: cell-based; conditions: culture time 72 h-216 h
Excerpt: as §1

[21] = tested on: MDA-MB-436; test: as above; format: cell-based; conditions: MDA-MB-436 human breast cancer cells, culture time 72 h-216 h
Excerpt: as §1

[22] = tested on: PC-3; test: as above; format: cell-based; conditions: PC-3 human prostate cancer cells, culture time 72 h-216 h
Excerpt: as §1

[23] = tested on: T84; test: as above; format: cell-based; conditions: T84 human colon cancer cells, culture time 72 h-216 h
Excerpt: as §1

[24] = NCI-H1299, H1299 human non-small cell lung cancer cells
[25] = NCI-H1650, H1650 human lung cancer cells
[26] = NCI-H1975, H1975 human non-small cell lung adenocarcinoma cells
[27] = NCI-H2228, H2228 human non-small cell lung adenocarcinoma cells
[28] = NCI-H2444, H2444 human non-small cell lung cancer cells
[29] = NCI-H3122, H3122 human non-small cell lung cancer cells
[30] = NCI-H520, H520 human non-small cell lung squamous cell
[31] = HEK293, HEK-293 human embryonic kidney cells
[32] = HT-29, HT29 human colon cancer cells
[33] = KYSE-450, KYSE450 human esophageal cancer cells
[34] = MCF7, MCF-7 human breast cancer cells

Compound	IC50 [2]	IC50 [3]	IC50 [4]	IC50 [5]	IC50 [13]	IC50 [14]	IC50 [15]	IC50 [16]	IC50 [21]	IC50 [22]	IC50 [23]	IC50 [6, 24]	IC50 [7, 25]	IC50 [8, 26]	IC50 [9, 27]	IC50 [10, 28]	IC50 [11, 29]	IC50 [12, 30]	IC50 [17, 31]	IC50 [18, 32]	other results
carboplatin	–	–	–	–	–	–	–	–	–	–	–	–	–	–	–	–	–	–	–	–	breast/axillary pCR rates ([1]; vs 41% without, P=0.0029): 54%; breast pCR rates ([1]; vs 44% without, P=0.0018): 60%
N.N.[Cl][Pt][Cl] [Cisplatin, cis-diaminedichloroplatinum(II)]	1000 nM	1400 nM	4440 nM	214 nM	259 nM	1000 nM	626 nM	878 nM	139 nM	799 nM	433 nM	–	–	–	–	–	–	–	–	–	IC50 ([6]; H1299 human non-small cell lung cancer cells): 2000 nM; IC50 ([7]; H1650 human lung cancer cells): 1060 nM; IC50 ([8]; H1975 human non-small cell lung adenocarcinoma cells): 7000 nM; IC50 ([9]; H2228 human non-small cell lung adenocarcinoma cells): 514 nM; IC50 ([10]; H2444 human non-small cell lung cancer cells): 1140 nM; IC50 ([11]; H3122 human non-small cell lung cancer cells): 1540 nM; IC50 ([12]; H520 human non-small cell lung squamous cell): 464 nM; IC50 ([17]; HEK-293 human embryonic kidney cells): 465 nM; IC50 ([18]; HT29 human colon cancer cells): 692 nM; IC50 ([19]; KYSE450 human esophageal cancer cells): 1460 nM; IC50 ([20]; MCF-7 human breast cancer cells): 894 nM
O=C(c1cc(Cc2n[nH]c(=O)c3ccccc23)ccc1F)N1CCN(C(=O)C2CC2)CC1 [Olaparib]	80000 nM	8330 nM	160000 nM	2570 nM	10000 nM	9140 nM	6080 nM	25300 nM	< 2500 nM	6220 nM	5850 nM	40000 nM	75000 nM	80000 nM	10800 nM	7670 nM	16900 nM	2190 nM	5880 nM	7660 nM	IC50 [19, 33]: 130000 nM; IC50 [20, 34]: 3510 nM
CC[C@@]1(O)C(=O)OCc2c1cc1n(c2=O)Cc2cc3c(CN(C)C)c(O)ccc3nc2-1 [Topotecan, Topotecan hydrochloride hydrate]	250 nM	0.907 nM	518 nM	15.8 nM	35.2 nM	23.1 nM	12.6 nM	46.7 nM	4.21 nM	20.1 nM	7.56 nM	28.7 nM	125 nM	250 nM	24.6 nM	8.09 nM	20 nM	9.17 nM	18 nM	15.6 nM	IC50 [19, 33]: 26.3 nM; IC50 [20, 34]: 2.05 nM
CC(=O)O[C@H]1C(=O)[C@@]2(C)[C@H]([C@H](OC(=O)c3ccccc3)[C@]3(O)C[C@H](OC(=O)[C@H](O)[C@@H](NC(=O)c4ccccc4)c4ccccc4)C(C)=C1C3(C)C)[C@]1(OC(C)=O)CO[C@@H]1C[C@@H]2O [Paclitaxel]	5.86 nM	4.16 nM	43.5 nM	6.99 nM	9 nM	3.85 nM	9.26 nM	6.13 nM	9.67 nM	4.27 nM	32.1 nM	22.7 nM	6.61 nM	7 nM	5.2 nM	7.1 nM	8.48 nM	6.99 nM	10.3 nM	3.05 nM	IC50 [19, 33]: 11.5 nM; IC50 [20, 34]: 4.84 nM
